Legend:
[1] = molecular target: mutant IDH1^R132H (Homo sapiens, UniProt O75874, R132H); assay: IDH1^R132H enzymatic assay (diaphorase/resazurin readout of NADPH); type: biochemical; conditions: for Inhibition ratio (%) 50 (μM): compound at 50 μM
Protocol: This assay added into a 384-well blank plate and then incubated at room temperature for 60 min. […] Curve fitting for dose response IC50 was done using GraphPad Prism.
These 12 ligands were submitted to determine the IC50.

[2] = tested on: advanced hematological malignancies; parameters: method as in Foran et al., 2019; conditions: clinic, ref Foran et al., 2019; cited from earlier work

Chain of mutant IDH1^R132H (O75874 whole entry R132H): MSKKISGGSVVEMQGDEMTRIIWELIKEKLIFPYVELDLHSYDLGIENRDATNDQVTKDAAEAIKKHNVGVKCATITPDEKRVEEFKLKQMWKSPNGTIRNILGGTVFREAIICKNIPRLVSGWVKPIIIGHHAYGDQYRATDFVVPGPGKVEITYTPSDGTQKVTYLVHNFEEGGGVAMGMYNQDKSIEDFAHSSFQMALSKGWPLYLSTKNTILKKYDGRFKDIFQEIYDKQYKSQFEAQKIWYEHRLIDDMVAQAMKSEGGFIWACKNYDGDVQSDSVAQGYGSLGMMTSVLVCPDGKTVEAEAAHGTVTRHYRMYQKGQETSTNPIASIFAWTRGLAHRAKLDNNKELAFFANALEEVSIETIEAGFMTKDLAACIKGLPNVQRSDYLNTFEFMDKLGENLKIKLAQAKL

| Compound | IC50 [1] [µM] | Inhibition ratio (%) 50 (μM) [1] [%] | total overall response rate [2] [%] |
| --- | --- | --- | --- |
| CCOC(=O)c1[nH]c(C)c(CN(Cc2ccccc2)C(=O)[C@@H](C)Oc2ccccc2)c1C [G798-0506] | 38 ± 2 | 61.15±6.15 | – |
| COc1ccc(C(=O)[C@@H](Cn2cncn2)[C@H](Sc2ccccc2)c2ccccc2)cc1 [AQ-714/41674992] | 20.8 ± 4.2 | 73.30±1.90 | – |
| O=C1CS[C@@H](c2cccc(NS(=O)(=O)c3ccc4ccccc4c3)c2)N1c1ccc(F)cc1 [V010-1281] | 50 ± 6.4 | 60.85±2.05 | – |
| O=C1C[C@H](C(=O)N(CCc2ccccc2)Cc2ccccc2)CN1Cc1cccc(Br)c1 [V015-1671] | 23.8 ± 1.8 | 65.30±2.30 | – |
| N#Cc1ccnc(N2C(=O)CC[C@H]2C(=O)N(c2cncc(F)c2)[C@H](C(=O)NC2CC(F)(F)C2)c2ccccc2Cl)c1 [AG-120] | – | – | 42 |
| CN(CC(=O)N1N=C(c2ccccc2Cl)C[C@H]1c1ccc2c(c1)OCO2)C(=O)C1CCCC1 [V025-9252] | 45.5 ± 3.1 | 59.15±3.75 | – |
| O=C1C[C@H](C(=O)N(Cc2cccc3ccccc23)c2ccccn2)CN1Cc1ccccc1 [D491-0852] | 46.9 ± 6 | 58.00±0.60 | – |
| O=C(Cc1ccc(N(Cc2ccccc2)C(=O)c2cccc(F)c2)cc1)NCc1cccnc1 [V016-3750] | 42.9 ± 2.8 | 54.90±1.70 | – |
| O=C(NCc1ccc(C(F)(F)F)cc1)c1nnn(-c2ccccc2Cl)c1-c1cccnc1 [L806-0255] | 28.3 ± 2.5 | 66.25±3.25 | – |
| CCC[C@@H]1N=C2c3ccccc3N=C(S[C@@H](CC)C(=O)Nc3cccc(Cl)c3)N2C1=O [G568-0082] | 41.9 ± 8 | 54.30±4.30 | – |

Reference: publication PMC7686577, “Discovery of Novel IDH1 Inhibitor Through Comparative Structure-Based Virtual Screening” (Frontiers in Pharmacology, 2020)
